Experiments:
SMARCA4-HiBiT = target: T1, SMARCA4-HiBiT (Homo sapiens, UniProt P51532); assay: SMARCA4 HiBiT degradation assay in HeLa cells; format: cell-based; details: 18 hours incubation; for DC50: read-out: HeLa-HiBit-SM4 DC50; for Dmax: HeLa, read-out: HeLa-HiBit-SM4 Dmax (%)
T1 construct: SMARCA4-HiBiT knock-in Hela monoclonal cell (CS3023226); host or cells: HeLa monoclonal knock-in line (CRISPR HiBiT knock-in at the endogenous locus, heterozygous)
In short: (§1)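 HeLa monoclonal lines with heterozygous HiBiT knock-in were seeded at 2500 cells/well in EMEM with 10% FBS and treated with compound for 18 h at 37 °C. Remaining tagged protein was measured by Nano-Glo HiBiT lytic luminescence after 30–60 min at RT, and values came from curve fitting.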

SMARCA2-HiBiT = target: T2, SMARCA2-HiBiT (Homo sapiens, UniProt P51531); assay: SMARCA2 HiBiT degradation assay in HeLa cells; format: cell-based; details: 18 hours incubation; for DC50: read-out: HeLa_HiBit-SM2 DC50; for Dmax: HeLa, read-out: HeLa-HiBit-SM2 Dmax (%)
T2 construct: SMARCA2-HiBiT knock-in Hela monoclonal cell (CS302366); host or cells: HeLa monoclonal knock-in line (CRISPR HiBiT knock-in at the endogenous locus, heterozygous)
In short: as §1

T1 sequence (P51532 whole entry): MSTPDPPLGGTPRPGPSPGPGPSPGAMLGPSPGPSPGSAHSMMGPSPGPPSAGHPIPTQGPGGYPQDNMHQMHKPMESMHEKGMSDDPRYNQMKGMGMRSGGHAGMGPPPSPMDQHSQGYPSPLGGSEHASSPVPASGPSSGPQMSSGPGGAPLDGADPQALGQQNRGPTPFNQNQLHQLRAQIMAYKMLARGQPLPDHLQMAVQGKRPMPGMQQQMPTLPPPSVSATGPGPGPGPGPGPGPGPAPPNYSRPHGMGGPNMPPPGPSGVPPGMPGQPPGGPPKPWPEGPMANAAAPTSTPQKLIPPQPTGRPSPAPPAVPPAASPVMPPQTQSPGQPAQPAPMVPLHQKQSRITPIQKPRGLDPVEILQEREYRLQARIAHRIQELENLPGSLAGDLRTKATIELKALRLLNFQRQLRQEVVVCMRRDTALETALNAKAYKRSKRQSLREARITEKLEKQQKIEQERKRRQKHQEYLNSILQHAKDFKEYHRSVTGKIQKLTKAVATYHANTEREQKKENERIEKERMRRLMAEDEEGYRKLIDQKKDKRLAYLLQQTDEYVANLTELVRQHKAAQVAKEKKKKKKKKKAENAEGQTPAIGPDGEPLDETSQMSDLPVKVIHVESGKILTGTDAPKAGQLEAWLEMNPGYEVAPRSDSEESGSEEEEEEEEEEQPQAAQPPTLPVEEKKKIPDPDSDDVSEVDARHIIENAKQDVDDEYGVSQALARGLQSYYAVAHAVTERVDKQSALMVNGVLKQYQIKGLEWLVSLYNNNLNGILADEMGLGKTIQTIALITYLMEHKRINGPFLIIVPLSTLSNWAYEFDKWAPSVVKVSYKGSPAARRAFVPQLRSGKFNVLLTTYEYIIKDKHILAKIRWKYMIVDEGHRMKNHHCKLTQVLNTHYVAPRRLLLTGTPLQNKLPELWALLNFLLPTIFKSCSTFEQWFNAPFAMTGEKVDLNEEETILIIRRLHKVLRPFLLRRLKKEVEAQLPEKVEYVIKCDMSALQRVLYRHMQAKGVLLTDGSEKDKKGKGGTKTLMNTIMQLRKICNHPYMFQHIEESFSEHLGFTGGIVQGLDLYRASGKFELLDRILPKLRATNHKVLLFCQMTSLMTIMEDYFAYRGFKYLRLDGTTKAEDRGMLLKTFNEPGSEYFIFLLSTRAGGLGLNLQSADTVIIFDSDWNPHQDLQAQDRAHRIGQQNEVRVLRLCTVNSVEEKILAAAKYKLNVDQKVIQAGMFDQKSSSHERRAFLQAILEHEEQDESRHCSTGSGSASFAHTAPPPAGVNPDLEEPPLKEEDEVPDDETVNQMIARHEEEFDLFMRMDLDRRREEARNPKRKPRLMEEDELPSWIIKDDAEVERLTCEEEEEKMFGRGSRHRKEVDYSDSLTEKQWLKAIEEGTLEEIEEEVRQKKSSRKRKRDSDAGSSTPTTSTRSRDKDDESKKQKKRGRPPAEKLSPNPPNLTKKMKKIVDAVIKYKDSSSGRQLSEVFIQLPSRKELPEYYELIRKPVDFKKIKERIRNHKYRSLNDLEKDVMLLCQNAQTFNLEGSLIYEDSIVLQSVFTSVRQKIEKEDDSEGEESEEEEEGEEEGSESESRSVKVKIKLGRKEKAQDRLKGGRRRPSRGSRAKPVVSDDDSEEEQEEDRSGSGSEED
T2 sequence (P51531 whole entry): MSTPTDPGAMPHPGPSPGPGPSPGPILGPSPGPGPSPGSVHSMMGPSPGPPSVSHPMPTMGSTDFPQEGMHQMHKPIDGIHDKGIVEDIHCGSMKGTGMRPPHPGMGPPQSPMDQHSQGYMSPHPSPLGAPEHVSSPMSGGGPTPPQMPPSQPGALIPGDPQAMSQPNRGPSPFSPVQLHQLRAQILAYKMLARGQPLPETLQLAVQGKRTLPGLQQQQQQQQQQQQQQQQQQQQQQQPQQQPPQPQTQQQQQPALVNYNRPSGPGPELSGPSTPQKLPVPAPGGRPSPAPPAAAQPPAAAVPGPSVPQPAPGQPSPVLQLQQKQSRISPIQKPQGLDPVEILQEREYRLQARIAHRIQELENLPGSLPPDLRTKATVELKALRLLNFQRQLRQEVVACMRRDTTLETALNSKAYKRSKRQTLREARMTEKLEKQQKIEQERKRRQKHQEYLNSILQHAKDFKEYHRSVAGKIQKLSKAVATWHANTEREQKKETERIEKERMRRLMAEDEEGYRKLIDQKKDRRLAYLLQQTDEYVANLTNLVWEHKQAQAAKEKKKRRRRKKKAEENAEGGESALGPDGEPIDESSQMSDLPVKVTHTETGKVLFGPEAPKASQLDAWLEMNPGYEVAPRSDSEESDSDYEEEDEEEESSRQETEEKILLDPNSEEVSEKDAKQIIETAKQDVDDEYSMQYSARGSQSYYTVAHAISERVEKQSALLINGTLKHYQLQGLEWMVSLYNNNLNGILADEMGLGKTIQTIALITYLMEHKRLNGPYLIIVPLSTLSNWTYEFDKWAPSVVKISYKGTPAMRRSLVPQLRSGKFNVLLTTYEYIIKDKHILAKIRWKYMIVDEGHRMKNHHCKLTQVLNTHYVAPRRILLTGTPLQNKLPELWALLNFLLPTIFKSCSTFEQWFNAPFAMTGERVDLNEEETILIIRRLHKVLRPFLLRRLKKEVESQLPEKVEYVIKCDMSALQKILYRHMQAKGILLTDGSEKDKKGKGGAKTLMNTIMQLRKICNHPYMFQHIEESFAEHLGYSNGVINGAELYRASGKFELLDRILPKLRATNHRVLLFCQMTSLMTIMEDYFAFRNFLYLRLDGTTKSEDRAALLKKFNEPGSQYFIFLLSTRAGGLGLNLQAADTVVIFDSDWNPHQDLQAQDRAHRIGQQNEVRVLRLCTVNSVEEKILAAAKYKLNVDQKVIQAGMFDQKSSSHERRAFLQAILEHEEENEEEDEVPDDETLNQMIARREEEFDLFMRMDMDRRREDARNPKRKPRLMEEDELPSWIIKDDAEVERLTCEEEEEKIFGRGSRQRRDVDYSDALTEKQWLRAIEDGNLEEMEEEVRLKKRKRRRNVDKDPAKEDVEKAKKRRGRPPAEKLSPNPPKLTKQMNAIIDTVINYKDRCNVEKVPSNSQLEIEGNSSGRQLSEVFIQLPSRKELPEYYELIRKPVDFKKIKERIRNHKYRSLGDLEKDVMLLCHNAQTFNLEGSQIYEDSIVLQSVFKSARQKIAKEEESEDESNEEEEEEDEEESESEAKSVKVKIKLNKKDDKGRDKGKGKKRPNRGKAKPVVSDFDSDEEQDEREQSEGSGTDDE

Row | Compound | DC50 (SMARCA4-HiBiT) [nM] | Dmax (SMARCA4-HiBiT) [%] | DC50 (SMARCA2-HiBiT) [nM] | Dmax (SMARCA2-HiBiT) [%]
1 | O=C1CCC(N2C(=O)c3ccc(N4CC[C@H](CN5C[C@@H]6[C@H](C5)[C@H]6CN5CCN6c7cc(-c8c(O)cccc8F)nnc7NC[C@H]6C5)[C@@H](F)C4)cc3C2=O)C(=O)N1 (stereo partly drawn) [Example 281, 2-(2,6-dioxopiperidin-3-yl)-5-((3R,4R)-3-fluoro-4-(((1R,5S,6R)-6-(((S)-2-(2-fluoro-6-hydroxyphenyl)-5,6,6a,7,9,10-hexahydro-8H-pyrazino[1′,2′:4,5]pyrazino[2,3-c]pyridazin-8-yl)methyl)-3-azabicyclo[3.1.0]hexan-3-yl)methyl)piperidin-1-yl) isoindoline-1,3-dione] | 10 to 100 | ≤ 50 | < 10 | 75 to 85
2 | CN(C1CCN(CC2CCN(c3ccc4c(c3)C(=O)N(C3CCC(=O)NC3=O)C4=O)CC2)CC1)C1C[C@@H]2CNc3nnc(-c4ccccc4O)cc3N2C1 (stereo partly drawn) [Example 29, 2-(2,6-dioxopiperidin-3-yl)-5-(4-((4-(((6aR)-2-(2-hydroxyphenyl)-5,6,6a,7,8,9-hexahydropyrrolo[1′,2′:4,5]pyrazino[2,3-c]pyridazin-8-yl)(methyl)amino)piperidin-1-yl)methyl)piperidin-1-yl) isoindoline-1,3-dione] | < 10 | > 85 | < 10 | > 85
3 | CN(CCN1CCC(CN2CCN3c4cc(-c5ccccc5O)nnc4NC[C@H]3C2)CC1)c1ccc2c(c1)C(=O)N(C1CCC(=O)NC1=O)C2=O (stereo partly drawn) [Example 246, 2-(2,6-dioxopiperidin-3-yl)-5-((2-(4-(((S)-2-(2-hydroxyphenyl)-5,6,6a,7,9,10-hexahydro-8H-pyrazino[1′,2′:4,5]pyrazino[2,3-c]pyridazin-8-yl)methyl)piperidin-1-yl)ethyl)(methyl)amino)isoindoline-1,3-dione] | < 10 | 50 to 75 | < 10 | 75 to 85
4 | O=C1CCC(N2Cc3ccc(N4CC[C@H](CN5CCN(C(=O)N6CCN7c8cc(-c9ccccc9O)nnc8NC[C@H]7C6)CC5)[C@@H](F)C4)cc3C2=O)C(=O)N1 (stereo partly drawn) [Example 205, 3-[5-[(3R.4R)-3-fluoro-4-[[4-[(10S)-4-(2-hydroxyphenyl)-1,5,6,8,12-pentazatricyclo[8.4.0.02,7]tetradeca-2,4,6-triene-12-carbonyl]piperazin-1-yl]methyl]piperidin-1-yl]-3-oxo-1H-isoindol-2-yl]piperidine-2.6-dione] | 10 to 100 | 75 to 85 | < 10 | > 85
5 | O=C1CCC(N2Cc3cc(C4CCN(CC5CCN(CCN6CCN7c8cc(-c9ccccc9O)nnc8NC[C@H]7C6)CC5)CC4)ccc3C2=O)C(=O)N1 (stereo partly drawn) [Example 213, 3-(5-(1-((1-(2-((S)-2-(2-hydroxyphenyl)-5,6,6a,7,9,10-hexahydro-8H-pyrazino[1′,2′:4,5]pyrazino[2,3-c]pyridazin-8-yl)ethyl)piperidin-4-yl)methyl)piperidin-4-yl)-1-oxoisoindolin-2-yl)piperidine-2,6-dione] | < 10 | > 85 | < 10 | > 85
6 | O=C1CCC(N2C(=O)c3ccc(N4CCCC(CN5CCO[C@@H](CN6CCN7c8cc(-c9ccccc9O)nnc8NC[C@H]7C6)C5)C4)cc3C2=O)C(=O)N1 (stereo partly drawn) [Example 79, 2-(2,6-dioxopiperidin-3-yl)-5-(3-(((S)-2-(((S)-2-(2-hydroxyphenyl)-5,6,6a,7,9,10-hexahydro-8H-pyrazino[1′,2′:4,5]pyrazino[2,3-c]pyridazin-8-yl)methyl)morpholino)methyl)piperidin-1-yl)isoindoline-1,3-dione] | < 10 | 75 to 85 | < 10 | 75 to 85
7 | O=C1CCC(N2C(=O)c3ccc(N4CCC(F)(CN5CCC(CN6CCN7c8cc(-c9ccccc9O)nnc8NC[C@H]7C6)CC5)CC4)cc3C2=O)C(=O)N1 (stereo partly drawn) [Example 48, 2-(2,6-dioxopiperidin-3-yl)-5-(4-fluoro-4-((4-(((S)-2-(2-hydroxyphenyl)-5,6,6a,7,9,10-hexahydro-8H-pyrazino[1′,2′:4,5]pyrazino[2,3-c]pyridazin-8-yl)methyl)piperidin-1-yl)methyl)piperidin-1-yl)isoindoline-1,3-dione] | < 10 | 75 to 85 | < 10 | > 85
8 | CC1CN(CC2CCN(c3ccc4c(c3)C(=O)N(C3CCC(=O)NC3=O)C4=O)CC2)CCC1CN1CCN2c3cc(-c4ccccc4O)nnc3NC[C@H]2C1 (stereo partly drawn) [Example 161, 2-(2,6-dioxopiperidin-3-yl)-5-(4-((4-(((S)-2-(2-hydroxyphenyl)-5,6,6a,7,9,10-hexahydro-8H-pyrazino[1′,2′:4,5]pyrazino[2,3-c]pyridazin-8-yl)methyl)-3-methylpiperidin-1-yl)methyl)piperidin-1-yl)isoindoline-1,3-dione] | < 10 | > 85 | < 10 | > 85
9 | O=C1CCC(N2Cc3ccc(N4CCC(CN5CCN(C(=O)N6CCN7c8cc(-c9ccccc9O)nnc8NC[C@H]7C6)C(C(F)(F)F)C5)CC4)cc3C2=O)C(=O)N1 (stereo partly drawn) [Example 100, 3-(6-(4-((4-((S)-2-(2-hydroxyphenyl)-6,6a,7,8,9,10-hexahydro-5H-pyrazino[1′,2′:4,5]pyrazino[2,3-c]pyridazine-8-carbonyl)-3-(trifluoromethyl)piperazin-1-yl)methyl)piperidin-1-yl)-1-oxoisoindolin-2-yl)piperidine-2,6-dione] | 10 to 100 | 75 to 85 | < 10 | 75 to 85
10 | O=C1CCC(N2Cc3cc(N4CCC(CN5CCC(OC(=O)N6CCN7c8cc(-c9ccccc9O)nnc8NC[C@H]7C6)CC5)CC4)ccc3C2=O)C(=O)N1 (stereo partly drawn) [Example 83, 1-((1-(2-(2,6-dioxopiperidin-3-yl)-1-oxoisoindolin-5-yl)piperidin-4-yl)methyl)piperidin-4-yl (6aS)-2-(2-hydroxyphenyl)-5,6,6a,7,9,10-hexahydro-8H-pyrazino[1′,2′:4,5]pyrazino[2,3-c]pyridazine-8-carboxylate] | < 10 | 75 to 85 | < 10 | > 85
11 | O=C1CCC(N2C(=O)c3ccc(N4CCC(CN5C[C@@H]6[C@H](C5)[C@H]6CN5CCN6c7cc(-c8ccccc8O)nnc7NC[C@H]6C5)C(F)(F)C4)cc3C2=O)C(=O)N1 (stereo partly drawn) [Example 182, 5-[3,3-difluoro-4-[[(1S,5R)-6-[[(10S)-4-(2-hydroxyphenyl)-1,5,6,8,12-pentazatricyclo[8.4.0.02,7]tetradeca-2(7),3,5-trien-12-yl]methyl]-3-azabicyclo[3.1.0]hexan-3-yl]methyl]piperidin-1-yl]-2-(2,6-dioxopiperidin-3-yl)isoindole-1,3-dione] | 10 to 100 | 50 to 75 | < 10 | > 85
12 | O=C1CCC(N2C(=O)c3ccc(CN4CCC(CN5CCC(CN6CCN7c8cc(-c9ccccc9O)nnc8NC[C@H]7C6)CC5)CC4)cc3C2=O)C(=O)N1 (stereo partly drawn) [Example 187, 2-(2,6-dioxopiperidin-3-yl)-5-[[4-[[4-[[(10S)-4-(2-hydroxyphenyl)-1,5,6,8,12-pentazatricyclo[8.4.0.02,7]tetradeca-2,4,6-trien-12-yl]methyl]piperidin-1-yl]methyl]piperidin-1-yl]methyl]isoindole-1,3-dione] | < 10 | 50 to 75 | < 10 | 50 to 75
13 | O=C1CCC(N2C(=O)c3ccc(N4CCC(CN5CCN6c7cc(-c8ccccc8O)nnc7NC[C@H]6C5)CC4)cc3C2=O)C(=O)N1 (stereo partly drawn) [Example 157, 2-(2,6-dioxopiperidin-3-yl)-5-(4-(((S)-2-(2-hydroxyphenyl)-5,6,6a,7,9,10-hexahydro-8H-pyrazino[1′,2′:4,5]pyrazino[2,3-c]pyridazin-8-yl)methyl)piperidin-1-yl)isoindoline-1,3-dione] | 10 to 100 | 50 to 75 | < 10 | 75 to 85
14 | O=C1CCC(N2C(=O)c3ccc(N4CCC(F)(CN5C[C@@H]6[C@@H](CN7CCN8c9cc(-c%10ccccc%10O)nnc9NC[C@H]8C7)[C@@H]6C5)CC4)cc3C2=O)C(=O)N1 (stereo partly drawn) [Example 149, 2-(2,6-dioxopiperidin-3-yl)-5-(4-fluoro-4-(((1R,5S,6s)-6-(((S)-2-(2-hydroxyphenyl)-5,6,6a,7,9,10-hexahydro-8H-pyrazino[1′,2′:4,5]pyrazino[2,3-c]pyridazin-8-yl)methyl)-3-azabicyclo[3.1.0]hexan-3-yl)methyl)piperidin-1-yl)isoindoline-1,3-dione] | 10 to 100 | 50 to 75 | < 10 | 50 to 75
15 | C[C@@H]1CN(CC2CCN(c3ccc4c(c3)C(=O)N(C3CCC(=O)NC3=O)C4=O)CC2)CCN1C(=O)N1CCN2c3cc(-c4ccccc4O)nnc3NC[C@H]2C1 (stereo partly drawn) [Example 115, 2-(2,6-dioxopiperidin-3-yl)-5-(4-(((R)-4-((S)-2-(2-hydroxyphenyl)-6,6a,7,8,9,10-hexahydro-5H-pyrazino[1′,2′:4,5]pyrazino[2,3-c]pyridazine-8-carbonyl)-3-methyl-piperazin-1-yl)methyl)piperidin-1-yl)isoindoline-1,3-dione] | < 10 | 50 to 75 | < 10 | 50 to 75
16 | C[C@@H](CN1CCC(N2CCN3c4cc(-c5ccccc5O)nnc4NC[C@H]3C2)CC1)Nc1cccc2c1C(=O)N(C1CCC(=O)NC1=O)C2=O (stereo partly drawn) [Example 71, 2-(2,6-dioxopiperidin-3-yl)-4-(((S)-1-(4-((S)-2-(2-hydroxyphenyl)-5,6,6a,7,9,10-hexahydro-8H-pyrazino[1′,2′:4,5]pyrazino[2,3-c]pyridazin-8-yl)piperidin-1-yl)propan-2-yl)ammo)isoindoline-1,3-dione] | < 10 | 75 to 85 | < 10 | 75 to 85
